Measurements taken from patent publication US12624018B1, “Inhibitors of RIPK2 and medical uses thereof” (Odyssey Therapeutics, Inc., priority 2022, dated 2026).

Tests used:
[1] = test system: TNF-alpha secretion in human whole blood; assay: Inhibition of TNF-alpha secretion in human whole blood (IFN-gamma primed, L18-MDP stimulated); type: cell-based; conditions: Homo sapiens, 16 h, L18-MDP 100 ng/mL, read-out: Human Whole Blood TNFα IC50
[2] = test system: RIPK2 activity in vivo, as measured by plasma levels of cytokine MCP-1; assay: In vivo inhibition of monocyte chemoattractant protein-1 (MCP-1), acute mouse MDP challenge; conditions: female C57BL/6 mice, plasma 2 h after MDP
Method: The compounds of the disclosure were tested for their ability to inhibit RTPK2 activity in vivo, as measured by plasma levels of cytokine MCP-1. C57BL/6 mice were dosed orally with the compounds of the disclosure one hour prior to intra-peritoneal administration of muramyldipeptide (MDP), a NOD2 agonist. Intraperitoneal (i.p.) injection of MDP in mice induces an increase in circulating levels of proinflammatory cytokines, such as MCP-1, in a RIPK2-dependent manner. This acute mouse MDP challenge represents a screening model to measure the ability of compounds to inhibit RIPK2 in vivo.
Materials: Female C57BL/6 mice (6-13 weeks of age) were purchased from the Jackson Laboratory. All mice were maintained under a 12 h light/dark cycle and had food and water ad libitum. Muramyldipeptide (MDP) was purchased from Invivogen (catalog No. tlrl-mdp; lot No. 6231-43-02). Mouse MCP-1 was measured using U-PLEX MSD kit (Meso Scale Discovery (MSD), catalog No. K15069M-2). Carboxymethyl cellulose was purchased from Sigma-Aldrich (catalog No. C5678-500 ml), Tween80 was purchased from Sigma-Aldrich (catalog No. P1754-500 ml), (Hydroxypropyl)-β-cyclodextrin (HP-β-CD) was purchased from Sigma-Aldrich (catalog No. C332607-500G), PBS was purchased from Thermo Fisher Scientific (catalog No. 14190250).
The vehicle was prepared by mixing carboxymethyl cellulose and Tween80 to achieve a final solution of 0.5% CMC or 20% HP-β-CD in water. The compounds of the disclosure were weighed out and mixed with the vehicle to yield final working suspensions. Working suspensions of the compounds were prepared once at the beginning of the study, and vortexed and sonicated prior to each dosing to ensure the material was in fine suspension.
Mice were acclimated to the facility for at least 5 days before the start of the study. On day 0, mice were weighed and assigned to groups in a balanced manner to achieve similar average weight across the groups at the start of the study. On day 0, hour −1 (1 hours before MDP injection), all mice were given a single p.o. dose with vehicle or a compound of the disclosure. At hour 0 (1 hour after dosing), mice were injected intraperitoneally (IP) with 8 mpk MDP in PBS. Two hours after MDP injection (3 hours after drug treatment), blood was collected via cardiac puncture for all mice into EDTA microtainer collection tubes. Plasma was prepared from blood and stored at −80° C.
MCP-1 levels in mouse plasma were measured using U-PLEX MSD kit according to manufacturer's instructions. A single analysis was performed for each sample. Concentrations were determined relative to a standard calibration curve, and total analyte levels in pg/mL.
The MCP-1 data in pg/mL were normalized in GraphPad Prism 9.2 using the normalize function and entering the 0% and 100% inhibition control groups for the study. 0% inhibition was defined as mean MCP-1 pg/mL in MDP vehicle group, and 100% inhibition was defined as mean MCP-1 pg/mL in the unstimulated vehicle group.

[3] = single p.o. dose 10 mg/kg 1 h before i.p. MDP 8 mpk
[4] = single p.o. dose 3 mg/kg 1 h before i.p. MDP 8 mpk

Row | SMILES | IC50 [1] [nM] | % MCP-1 inhibition [2, 3] [%] | % MCP-1 inhibition [2, 4]
1 | Cc1cc(CC(=O)Nc2cnn(C(C)(C)C)c2)ccc1Oc1ccnc2ccc(OC3CCNCC3)cc12 [Compound 83, N-(1-(tert-butyl)-1H-pyrazol-4-yl)-2-(3-methyl-4-((6-(piperidin-4-yloxy)quinolin-4-yl)oxy)phenyl) acetamide] | 3 |  | no effect
2 | Cc1cc(CC(=O)Nc2cnn(C(C)(C)C)c2)c(F)cc1Oc1ccnc2ccc(C(N)=O)cc12 [Compound 359, 4-(4-(2-((1-(tert-butyl)-1H-pyrazol-4-yl)amino)-2-oxoethyl)-5-fluoro-2-methyl-phenoxy) quinoline-6-carboxamide] | 4 | 88 | 
3 | CNC(=O)c1ccc2nccc(Oc3cc(F)c(CC(=O)Nc4cnn(C(C)(C)C)c4)cc3C)c2c1 [Compound 360, 4-(4-(2-((1-(tert-butyl)-1H-pyrazol-4-yl)amino)-2-oxoethyl)-5-fluoro-2-methylphenoxy)-N-methylquinoline-6-carboxamide] | 7 | 93 | 
4 | Cc1cc(CC(=O)Nc2cnn(C(C)(C)C)c2)cc(C)c1Oc1ccnc2cc(F)c(C(N)=O)cc12 [Compound 581, 4-(4-(2-((1-(tert-butyl)-1H-pyrazol-4-yl)amino)-2-oxoethyl)-2,6-dimethylphenoxy)-7-fluoroquinoline-6-carboxamide] |  |  | 75%

More lines, main results first:

Row | IC50 [1] [nM] | SMILES | % MCP-1 inhibition [2, 3] [%] | % MCP-1 inhibition [2, 4]
5 | 5 | CC(C)(C)n1cc(NC(=O)Cc2ccc(Oc3ccnc4ccc(S(C)(=O)=O)cc34)cc2F)cn1 [Compound 38, N-(1-(tert-butyl)-1H-pyrazol-4-yl)-2-(2-fluoro-4-((6-(methylsulfonyl)quinolin-4-yl)oxy)phenyl)acetamide] | 99 | 
6 | 9 | Cc1cc(CC(=O)Nc2cnn(C(C)(C)C)c2)ccc1Oc1ccnc2ccc(S(C)(=O)=O)cc12 [Compound 86, N-(1-(tert-butyl)-1H-pyrazol-4-yl)-2-(3-methyl-4-((6-(methylsulfonyl)quinolin-4-yl)oxy)phenyl)acetamide] |  | 101%
7 | 6 | Cc1c(Oc2ccnc3ccc(S(C)(=O)=O)cc23)ccc(CC(=O)Nc2cnn(C(C)(C)C)c2)c1F [Compound 91, N-(1-(tert-butyl)-1H-pyrazol-4-yl)-2-(2-fluoro-3-methyl-4-((6-(methylsulfonyl)quinolin-4-yl)oxy)phenyl)acetamide] |  | 99%
8 | 8 | CCS(=O)(=O)c1ccc2nccc(Oc3ccc(CC(=O)Nc4cnn(C(C)(C)C)c4)cc3C)c2c1 [Compound 99, N-(1-(tert-butyl)-1H-pyrazol-4-yl)-2-(4-((6-(ethylsulfonyl)quinolin-4-yl)oxy)-3-methylphenyl)acetamide] |  | 111%
9 | 14 | Cc1cc(CC(=O)Nc2cnn(C(C)(C)C)c2)c(F)cc1Oc1ccnc2ccc(S(C)(=O)=O)cc12 [Compound 113, N-(1-(tert-butyl)-1H-pyrazol-4-yl)-2-(2-fluoro-5-methyl-4-((6-(methylsulfonyl)quinolin-4-yl)oxy)phenyl)acetamide] | 82 | 
